Here are results for 15 molecules from US20250326722A1 (SHANGHAI HANSOH BIOMEDICAL CO., LTD., priority 2022, published 2025).

A word on the Kd: it is the constant that tells how readily two partners part at equilibrium. For orientation: IC50 means the concentration that inhibits the measured activity by half. Usually MRT stands for a mean duration of stay, worked out from the concentration-time curve.

For one data set, the target named is PCSK9 protein (Homo sapiens (Human), UniProt Q8NBP7). Kind of data set: Binding experiment: surface plasmon resonance (SPR) binding to PCSK9 protein. The text has this: • 1. Experimental objective: To detect the action of compounds to bind PCSK9 protein by a conventional surface plasmon resonance (SPR) method.
Chain of PCSK9 protein (Q8NBP7 153-692): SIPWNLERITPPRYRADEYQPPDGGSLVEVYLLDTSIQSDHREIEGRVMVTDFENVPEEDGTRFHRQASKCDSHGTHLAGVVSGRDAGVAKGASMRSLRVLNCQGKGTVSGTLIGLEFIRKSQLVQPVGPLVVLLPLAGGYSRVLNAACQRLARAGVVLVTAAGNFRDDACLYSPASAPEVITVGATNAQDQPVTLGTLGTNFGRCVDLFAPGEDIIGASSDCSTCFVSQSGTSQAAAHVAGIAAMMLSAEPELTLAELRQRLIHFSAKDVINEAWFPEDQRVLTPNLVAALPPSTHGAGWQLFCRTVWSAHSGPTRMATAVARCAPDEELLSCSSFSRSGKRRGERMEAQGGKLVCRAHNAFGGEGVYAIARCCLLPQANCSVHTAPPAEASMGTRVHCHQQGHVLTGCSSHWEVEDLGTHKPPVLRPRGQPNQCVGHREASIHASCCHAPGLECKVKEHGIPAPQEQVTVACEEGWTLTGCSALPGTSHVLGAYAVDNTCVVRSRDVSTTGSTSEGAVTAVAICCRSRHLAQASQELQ
(Surface plasmon resonance follows binding to a sensor surface in real time, without labels.)

The target in data set [1] is PCSK9 secreted by HepG2 cells (Homo sapiens (Human), UniProt Q8NBP7). Briefly: Effect on the concentration of PCSK9 secreted by HepG2 cells (ELISA). The data set is classed as cell-based. To be noted: 48 hours incubation, read-out: Inhibitory activity on PCSK9, IC50. From the text:
• 1. Experimental objective: To detect the inhibitory effect of the compounds on PCSK9. • 2. Experimental instruments and reagents: • 2.1 Instruments:
• CircuLex Human PCSK9 ELISA kit (MBL: CY-8079); • DMEM (Gibco: 31966-021) • FBS (Sigma: S5394) • Compound plate (Thermo: 1353506) • Complete culture medium: DMEM+10% FBS+1×P/S; • Experimental culture medium: DMEM+10% FBS • Cell strain: HepG2 (ATCC: HB-8065)
A self-adhesive seal was applied, the plate was placed on a plate shaker at room temperature, gently shaken, uniformly mixed, and incubated for 1 hour. • 11) The plate was placed on the plate washer, the washing liquid was set to 350 μL per well, and the plate was washed 4 times repeatedly. • 12) 100 μL/well of an HRP-conjugated detection antibody was added, a self-adhesive seal was applied, and the plate was placed on the plate shaker, well mixed uniformly, and incubated for 1 hour. • 13) The plate was placed on the plate washer, the washing liquid was set to 350 μL per well, and the plate was washed 4 times repeatedly. • 14) 100 μL/well of Substrate reagent was added, and the plate was placed in the dark, applied with a self-adhesive seal, placed on the plate shaker, well mixed uniformly, and incubated for 10-20 minutes. • 15) 100 μL/well of Stop solution (1N H2SO4) was added and mixed uniformly. • 16) The optical density (OD) value in each well was measured in sequence at a wavelength of 450 nm by the microplate reader. Detection was carried out within 30 min after the reaction was stopped.
After the OD values were read by the microplate reader, the OD value of the 0-concentration standard in the standard group was subtracted from the OD values of the standards, control group, and samples to obtain the actual OD values for these wells. A standard curve was plotted with Graphpad and the concentration of the sample was calculated. If the dilution was performed during the sample detection, the calculated sample concentration was necessarily multiplied by the corresponding dilution ratio in the final calculation, which was the actual concentration of the sample. Inhibition rate=(actual concentration in control-actual concentration in sample)/actual concentration in control*100. According to the inhibition rates corresponding to the different concentrations, IC50 was derived by Graphpad.
On the technique in general: An ELISA detects its analyte on a solid surface through an enzyme-linked reagent.

The nature of data set [2]: Pharmacokinetic determination in mice (plasma). The format is in vivo, C57BL/6J mice. To be noted: C57 mice, PO administration, 5 mpk; for AUC(0-inf) / half-life / MRT / Cmax: male, C57BL/6J, mouse, 5 mg/kg; for AUC(0-inf): read-out: Area under the curve AUC0-∞; for half-life: read-out: Half-life t1/2 (converted); for MRT: read-out: Mean residence time MRT; for Cmax: read-out: Plasma concentration Cmax. How it is done: C57BL/6J mice were used as test animals to study the pharmacokinetic behavior of the compounds of the present disclosure in mice (plasma) after oral and intravenous administration.
C57 mice, male, purchased from Shanghai Bk Lab Animal Co., Ltd., with animal production license number (SCXK (Shanghai) 2013-0006 NO.311620400001794).
• Preparation of oral drug: 10% Solutol HS15
10 g of Solutol HS15 solid was weighed, dissolved in 90 mL of pure water, uniformly mixed, stirred, and ultrasonically treated to form a clear solution.
The compound of the present disclosure was weighed and dissolved in this solution, uniformly shaken, and ultrasonically treated for 15 minutes to obtain a colorless clear solution with a concentration of 0.5 mg/mL. • Preparation of intravenous drug: 5% DMSO+10% Solutol HS15+85% PBS […]
3 male C57 mice were fasted overnight and then respectively administered PO at a dose of 5 mg/kg and a volume of 10 mL/kg. […]
Before and after administration of mice, 0.04 mL of blood was collected from the orbit at 0.083 (iv), 0.25, 0.5, 1, 2, 4, 8, and 24 hours, and placed in EDTA-K2 test tubes, which was centrifuged at 6000 rpm at 4° C. for 6 min to separate plasma which was stored at −80° C.; and the […] were fed 4 h after administration.
The final determination results were obtained by using an LCMS/MS method.
The main pharmacokinetic parameters were calculated using WinNonlin 6.1.

Chain of PCSK9 secreted by HepG2 cells (Q8NBP7 153-692): as above
Chain of PCSK9 secreted by HepG2 cells (Q8NBP7 31-152 partner): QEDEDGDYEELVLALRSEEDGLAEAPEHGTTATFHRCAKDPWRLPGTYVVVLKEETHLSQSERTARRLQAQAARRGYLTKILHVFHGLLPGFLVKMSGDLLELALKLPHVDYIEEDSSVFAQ

As for `O=C1c2nc(C(F)(F)F)ccc2CN1c1ccc(N[C@H]2CC[C@H](Nc3nc4cc(F)ccn4n3)C2)nc1` [Example 155, 6-(6-(((1S,3S)-3-((7-fluoro-[1,2,4]triazolo[1,5-a]pyridin-2-yl)amino)cyclopentyl)amino)pyridin-3-yl)-2-(trifluoromethyl)-5,6-dihydro-7H-pyrrolo[3,4-b]pyridin-7-one], on PCSK9 protein, the Kd came out at 2.8 nM. In addition, the IC50 in data set [1] was determined as 19.9 µM. Further, in data set [2], the Time to peak tmax amounted to 30 min, the AUC(0-inf) was found to be 25500 ng·h/mL, the half-life was 354 min and the MRT was 1.9 h. The Cmax in data set [2] was 10000 ng/mL.
With `O=C1c2c(cccc2C(F)(F)F)CN1c1ccc(N[C@H]2CC[C@H](Nc3nc4cc(F)ccn4n3)C2)nc1` [Example 161], the Kd on PCSK9 protein was 2.6 nM. The IC50 in data set [1] turned out to be 17.6 µM.
At PCSK9 protein, `O=C1c2ncccc2CN1c1ccc(N[C@H]2CC[C@H](Nc3ncc(C4CC4)cn3)C2)nc1` [Example 127] came in with a Kd of 1.8 nM. Moreover, in data set [1], the IC50 came to 11.8 µM.
In turn, `O=c1ccccn1-c1ccc(N[C@H]2CC[C@H](Nc3nc4cc(Cl)ccn4n3)C2)nc1` [Example 112, 6′-(((1S,3S)-3-((7-chloro-[1,2,4]triazolo[1,5-a]pyridin-2-yl)amino)cyclopentyl)amino)-2H-[1,3′-bipyridinyl]-2-one] showed a Kd on PCSK9 protein of 2.7 nM.
Molecule `CC1(C)c2cccnc2C(=O)N1c1ccc(N[C@H]2CC[C@H](Nc3ncc(OC(F)F)cn3)C2)nc1` [Example 93, 6-(6-(((1S,3S)-3-((5-(difluoromethoxy)pyrimidin-2-yl)amino)cyclopentyl)amino)pyridin-3-yl)-5,5-dimethyl-5,6-dihydro-7H-pyrrolo[3,4-b]pyridin-7-one] gave a Kd at PCSK9 protein of 2.9 nM.
For `O=C1c2ncccc2CN1c1ccc(N[C@H]2CC[C@H](Nc3ncc(C4CC4)nn3)C2)nc1` [Example 126, 6-(6-(((1S,3S)-3-((6-cyclopropyl-1,2,4-triazin-3-yl)amino)cyclopentyl)amino)pyridin-3-yl)-5,6-dihydro-7H-pyrrolo[3,4-b]pyridin-7-one], binding at PCSK9 protein was characterised by a dissociation constant (Kd) of 1.2 nM. Further, the IC50 in data set [1] was 0.5 µM.
Regarding `Cc1nccc2c1CN(c1ccc(N[C@H]3CC[C@H](Nc4ncc(OC(F)F)cn4)C3)nc1)C2=O` [Example 115, 2-(6-(((1S,3S)-3-((5-(difluoromethoxy)pyrimidin-2-yl)amino)cyclopentyl)amino)-3-yl)-4-methyl-2,3-dihydro-1H-pyrrolo[3,4-c]pyridin-1-one], the Kd on PCSK9 protein is 3.1 nM. In addition, the IC50 in data set [1] stood at 3.8 µM. Moreover, in data set [2], the Time to peak tmax turned out to be 30 min, the AUC(0-inf) amounted to 20900 ng·h/mL, the half-life was 348 min and the mean residence time MRT worked out at 5.3 h. For the same molecule, in data set [2], the Cmax was found to be 4290 ng/mL.
The molecule `O=C1c2cccnc2CN1c1ccc(N[C@H]2CC[C@H](Nc3ncc(C(F)(F)F)nn3)C2)nc1` [Example 145] gave a Kd at PCSK9 protein of 3.2 nM. Also, the IC50 in data set [1] was determined as 24.5 µM. Besides, in data set [2], the Time to peak tmax is 30 min, the AUC(0-inf) turned out to be 12200 ng·h/mL, the half-life is 228 min and the MRT came out at 4.6 h. In addition, the Cmax in data set [2] was found to be 2370 ng/mL.
`O=c1ccccn1-c1ccc(N[C@H]2CC[C@H](Nc3nc4cc(C5CC5)ccn4n3)C2)nc1` [Example 135, 6′-(((1S,3S)-3-((7-cyclopropyl-[1,2,4]triazolo[1,5-a]pyridin-2-yl)amino)cyclopentyl)amino)-2H-[1,3′-bipyridinyl]-2-one] showed a Kd on PCSK9 protein of 4.9 nM. Moreover, the IC50 in data set [1] is 22.3 µM.
`O=C1c2cccnc2CN1c1ccc(NC2CCC(Nc3ncc(OC(F)(F)F)cn3)C2)nc1` [Example 122, 6-(6-(((1S,3S)-3-((5-(trifluoromethoxy)pyrimidin-2-yl)amino)cyclopentylamino)pyridin-3-yl)-6,7-dihydro-5H-pyrrolo[3,4-b]pyridin-5-one]: binding at PCSK9 protein was put at a Kd of 2.2 nM. In addition, in data set [1], the IC50 came out at 1.2 µM. In addition, in data set [2], the “Area under the curve AUC0-∞” value stood at 13239 ng·h/mL, the “Half-life t1/2” value is reported as 3.2 h, the “Mean residence time MRT” value came to 4.5 h and the “Plasma concentration Cmax” value stood at 2333 ng/mL. This molecule had a Time to peak tmax in data set [2] of 30 min.
In the case of `O=c1ccccn1-c1ccc(N[C@H]2CC[C@H](Nc3nc4cc(C(F)(F)F)ccn4n3)C2)nc1` [Example 113, 6′-(((1S,3S)-3-((7-(trifluoromethyl)-[1,2,4]triazolo[1,5-a]pyridin-2-yl)amino)cyclopentyl)amino)-2H-[1,3′-bipyridinyl]-2-one], the Kd on PCSK9 protein was determined as 4.2 nM. The IC50 in data set [1] was determined as 14 µM.
In turn, `O=C1c2ncncc2CN1c1ccc(N[C@H]2CC[C@H](Nc3ncc(OC(F)F)cn3)C2)nc1` [Example 132, 6-(6-(((1S,3S)-3-((5-(difluoromethoxy)pyrimidin-2-yl)amino)cyclopentyl)amino)pyridin-3-yl)-5,6-dihydro-7H-pyrrolo[3,4-d]pyrimidin-7-one] gave a Kd at PCSK9 protein of 1.1 nM. Further, the IC50 in data set [1] was found to be 12 µM.
In turn, `O=C1c2cccc(C(F)(F)F)c2CN1c1ccc(N[C@H]2CC[C@H](Nc3nc4cc(F)ccn4n3)C2)nc1` [Example 162] registered a Kd at PCSK9 protein of 3 nM. In data set [1], the IC50 came to 22.8 µM.
On to `O=C1c2cccnc2CN1c1ccc(N[C@H]2CC[C@H](Nc3ncc(OCC(F)(F)F)cn3)C2)nc1` [Example 124], for which the Kd at PCSK9 protein was found to be 0.8 nM. In addition, in data set [1], the IC50 came out at 16.8 µM.
On PCSK9 protein, `Cc1ccn2nc(N[C@H]3CC[C@H](Nc4ccc(N5Cc6cccnc6C5=O)cn4)C3)nc2c1` [Example 130, 6-(6-(((1S,3S)-3-((7-methyl-[1,2,4]triazolo[1,5-a]pyridin-2-yl)amino)cyclopentyl)amino)pyridin-3-yl)-5,6-dihydro-7H-pyrrolo[3,4-b]pyridin-7-one] had a Kd of 1.2 nM. Further, in data set [1], the IC50 was found to be 9.9 µM.
